Read-outs that look alike come from different tables or passages of the source.
Tests used:
[1] = tested on: blood cancer cell lines (e.g. HL-60, Jurkat, Raji, Ramos, Daudi, MOLT-4); test: Cell based assay, cell viability (CellTiter-Glo), blood cancer cell lines; details: Homo sapiens
Description: (§1) Commercially available bladder cancer, prostate cancer, lung cancer, breast cancer, blood cancer, pancreatic cancer, colorectal cancer, brain cancer, neuroblastoma, melanoma, liver cancer, cervical carcinoma, ovarian cancer, renal cancer, and papilloma cell lines were each treated with trypsin-EDTA and cultured, followed by being seeded in each well of a 96 well plate. After 24 hours of treatment at constant temperature, the respective cells were treated with the candidate compound so that a final concentration became 0 to 2 μM. The treated cells were additionally cultured for 72 hours, and cell viability was measured by using an ATP detection method (CellTiter-Glo® Luminescent Cell Viability Assay, Promega).

[2] = tested on: bladder cancer cell lines; test: Cell based assay, cell viability (CellTiter-Glo), bladder cancer cell lines; details: 72 hours treatment, 0 to 2 μM, CellTiter-Glo
Description: as §1

[3] = tested on: cervical carcinoma cell lines; test: Cell based assay, cell viability (CellTiter-Glo), cervical carcinoma cell lines; details: Homo sapiens; HeLa cells
Description: as §1, with “After 24 hours of treatment at constant temperature, the respective cells were treated with the candidate compound so that a final concentration became 0 to 2 μM.” left out

[4] = MV4-11, blood cancer cell line MV-4-11, 72 hours, read-out: IC50, MV-4-11
[5] = blood cancer cell line Daudi, 72 hours, read-out: IC50, Daudi
[6] = blood cancer cell line HL-60, 72 hours, read-out: IC50, HL-60
[7] = blood cancer cell line Jurkat, 72 hours, read-out: IC50, Jurkat
[8] = blood cancer cell line MOLT-4, 72 hours, read-out: IC50, MOLT-4
[9] = blood cancer cell line Raji, 72 hours, read-out: IC50, Raji
[10] = blood cancer cell line Ramos (RA 1), 72 hours, read-out: IC50, Ramos (RA 1)
[11] = blood cancer cell line U-937, 72 hours, read-out: IC50, U-937
[12] = 253J cells, read-out: IC50, bladder cancer cell line 253J
[13] = 5637 cells, read-out: IC50, bladder cancer cell line 5637
[14] = Homo sapiens, T-24, T24 cells, read-out: IC50, bladder cancer cell line T24
[15] = Homo sapiens, UMUC3, UM-UC-3 cells, read-out: IC50, bladder cancer cell line UM-UC-3
[16] = Homo sapiens, J82 cells, read-out: IC50, bladder cancer cell line J82
[17] = Homo sapiens, KU-19-19 cells, read-out: IC50, bladder cancer cell line KU-19-19
[18] = MBT-2 cells, read-out: IC50, bladder cancer cell line MBT-2

Compound | IC50 [1, 4] [µM] | IC50 [1, 5] [µM] | IC50 [1, 6] [µM] | IC50 [1, 7] [µM] | IC50 [1, 8] [µM] | IC50 [1, 9] [µM] | IC50 [1, 10] [µM] | IC50 [1, 11] [µM] | IC50 [2, 12] [µM] | IC50 [2, 13] [µM] | IC50 [2, 14] [µM] | IC50 [2, 15] [µM] | IC50 [2, 16] [µM] | IC50 [2, 17] [µM] | IC50 [2, 18] [µM] | IC50 [3] [µM]
CC(=O)c1c(SCc2cccc(C#N)c2)[nH]c2c(Br)ccc(Cl)c2c1=O [Compound 27, 3-(((3-acetyl-8-bromo-5-chloro-4-oxo-1,4-dihydroquinolin-2-yl)thio)methyl)benzonitrile] | > 2 | > 2 | > 2 | > 2 | > 2 | > 2 | > 2 | > 2 | > 2 | > 2 | > 2 | > 2 | > 2 | > 2 | > 2 | > 10
CSc1c(C(C)=O)c(=O)c2c(Cl)ccc(Br)c2n1S(=O)(=O)c1ccc(C(C)(C)C)cc1 [Compound 40, 3-acetyl-8-bromo-1-((4-(tert-butyl)phenyl)sulfonyl)-5-chloro-2-(methylthio)quinolin-4(1H)-one] | > 2 | > 2 | > 2 | > 2 | > 2 | > 2 | > 2 | > 2 | > 2 | > 2 | > 2 | > 2 | > 2 | > 2 | > 2 | > 10
CC(C)C(=O)c1c([S+]([O-])Cc2ccc(SC(F)(F)F)cc2)[nH]c2c(F)ccc(F)c2c1=O (stereo not drawn) [Compound 85, 5,8-difluoro-3-isobutyryl-2-((4-((trifluoromethyl)thio)benzyl)sulfinyl)quinolin-4(1H)-one] | > 2 | > 2 | > 2 | > 2 | > 2 | > 2 | > 2 | > 2 | > 2 | > 2 | > 2 |  | > 2 |  |  | > 10
O=C(c1c([S+]([O-])Cc2ccc(SC(F)(F)F)cc2)[nH]c2c(Br)ccc(Cl)c2c1=O)C1CC1 (stereo not drawn) [Compound 101, 8-bromo-5-chloro-3-(cyclopropanecarbonyl)-2-((4-((trifluoromethyl)thio)benzyl)sulfinyl)quinolin-4(1H)-one] | > 2 | 1.04 | > 2 | 1.01 | 1.16 | 1.79 | 1.48 | > 2 |  | > 2 | > 2 |  | > 2 |  |  | > 2
CC(=O)c1c([S+]([O-])Cc2nonc2C)[nH]c2c(Br)ccc(Cl)c2c1=O (stereo not drawn) [Compound 106, 3-acetyl-8-bromo-5-chloro-2-(((4-methyl-1,2,5-oxadiazol-3-yl)methyl)sulfinyl)quinolin-4(1H)-one] | > 2 | > 2 | > 2 | > 2 | > 2 | > 2 | > 2 | > 2 | > 2 | > 2 | > 2 |  | > 2 |  |  | > 2
CC(=O)c1c(SCc2ccccc2)nc2c(Br)ccc(Cl)c2c1O [Compound 52, 1-(2-(benzylthio)-8-bromo-5-chloro-4-hydroxyquinolin-3-yl)ethan-1-one] | > 2 | > 2 | > 2 | > 2 | > 2 | > 2 | > 2 | > 2 | > 2 | > 2 | > 2 | > 2 | > 2 | > 2 | > 2 | > 10
COCSc1[nH]c2c(Br)ccc(Cl)c2c(=O)c1C(C)=O [Compound 61, 3-acetyl-8-bromo-5-chloro-2-((methoxymethyl)thio)quinolin-4(1H)-one] | > 2 | > 2 | > 2 | > 2 | > 2 | > 2 | > 2 | > 2 | > 2 | > 2 | > 2 | > 2 | > 2 | > 2 | > 2 | > 10
